Data as given in PMC10726481, “New Teixobactin Analogues with a Total Lactam Ring” (ACS Medicinal Chemistry Letters, 2023).
Values after ≈ are worked out from the molar mass of the structure shown. Bridge positions count the residues as written; N and C are the ends. Square brackets hold non-standard residues; d marks the D form. Peptide text beside a SMILES is read from it. d(aIle) = CC[C@H](C)[C@@H](N)C(=O)O; dNMeF = CN[C@H](Cc1ccccc1)C(=O)O; Nle = CCCC[C@H](N)C(=O)O; dDap = NC[C@@H](N)C(=O)O

Columns and labels:
C. glabrata ATCC 15126 = assay: microbe, parasite or virus in culture; assay type: cell-based; settings: for MIC C. glabrata ATCC 15126: ATCC 15126, 24 h
Experimental: (§1) . The minimum inhibitory concentrations (MICs) of synthesized compounds were assessed according to the broth microdilution method using 96-well plates, in reference to the protocol of the Clinical and Laboratory Standards Institute (CLSI).[32],[33] In assays, reference strains of the bacteria S. aureus ATCC 25923, S. epidermidis ATCC 14990, and E. coli ATCC 25922 and the fungus C. glabrata ATCC 15126 were used, all from The Polish Collection of Microorganism, Polish Academy of Sciences, Wrocław, Poland. Bacteria at initial inoculums of 0.5 × 10^5 CFU/mL in Mueller–Hinton Broth (MHB), and fungus at initial inoculums of 2 × 10^3 CFU/mL in RPMI-1640, were exposed to the serial dilution of compounds. Tested concentrations were in the range 1–512 μg/mL. 96-well plates with microorganisms and tested substances were incubated at 37 °C for 18 h for bacteria and for 24 h for C. glabrata. The MIC values were taken as the lowest concentrations at which visible growth of microorganisms was inhibited. The minimum inhibitory concentrations (MICs) for MRSA ATCC 33591 were tested at the University of Liverpool. Bacterial cultures were grown overnight in Mueller–Hinton Agar (MHA) plates and adjusted to a final concentration of 10^5–10^6 CFU/mL. 100 μL of inoculum in Meuller–Hinton broth (MHB) was mixed with an equal volume of peptides (dissolved in MHB) at 2× their concentration in a 96-well plate. […] The final peptide concentrations ranged from 0.0625–32 μg/mL (the lower range 0.031–16 μg/mL was used). Positive and negative controls contained 200 μL of inoculum without any peptide dissolved in broth, respectively. The 96-well plates were then incubated at 37 °C for 24 h. All the experiments were performed in two independent duplicates, and the MIC was determined as the lowest concentration in which no visible growth was observed.

E. coli ATCC 25922 = assay: microbe, parasite or virus in culture; assay type: cell-based; settings: for MIC E. coli ATCC 25922: ATCC 25922, 18 h
Experimental: as §1

S. aureus ATCC 25923 = assay type: cell-based; settings: ATCC 25923, 18 h
Experimental: (§2) . The minimum inhibitory concentrations (MICs) of synthesized compounds were assessed according to the broth microdilution method using 96-well plates, in reference to the protocol of the Clinical and Laboratory Standards Institute (CLSI).[32],[33] In assays, reference strains of the bacteria S. aureus ATCC 25923, S. epidermidis ATCC 14990, and E. coli ATCC 25922 and the fungus C. glabrata ATCC 15126 were used, all from The Polish Collection of Microorganism, Polish Academy of Sciences, Wrocław, Poland. Bacteria at initial inoculums of 0.5 × 10^5 CFU/mL in Mueller–Hinton Broth (MHB), and fungus at initial inoculums of 2 × 10^3 CFU/mL in RPMI-1640, were exposed to the serial dilution of compounds. Tested concentrations were in the range 1–512 μg/mL. 96-well plates with microorganisms and tested substances were incubated at 37 °C for 18 h for bacteria and for 24 h for C. glabrata. The MIC values were taken as the lowest concentrations at which visible growth of microorganisms was inhibited. The minimum inhibitory concentrations (MICs) for MRSA ATCC 33591 were tested at the University of Liverpool. Bacterial cultures were grown overnight in Mueller–Hinton Agar (MHA) plates and adjusted to a final concentration of 10^5–10^6 CFU/mL. 100 μL of inoculum in Meuller–Hinton broth (MHB) was mixed with an equal volume of peptides (dissolved in MHB) at 2× their concentration in a 96-well plate. […] Positive and negative controls contained 200 μL of inoculum without any peptide dissolved in broth, respectively. The 96-well plates were then incubated at 37 °C for 24 h. All the experiments were performed in two independent duplicates, and the MIC was determined as the lowest concentration in which no visible growth was observed.

[1] = tested on: S. epidermidis ATCC 14990; assay type: cell-based; settings: ATCC 14990, 18 h
Experimental: as §2

MRSA ATCC 33591 = assay type: cell-based, methicillin-resistant S. aureus; settings: ATCC 33591, 24 h
Experimental: . The minimum inhibitory concentrations (MICs) of synthesized compounds were assessed according to the broth microdilution method using 96-well plates, in reference to the protocol of the Clinical and Laboratory Standards Institute (CLSI).[32],[33] In assays, reference strains of the bacteria S. aureus ATCC 25923, S. epidermidis ATCC 14990, and E. coli ATCC 25922 and the fungus C. glabrata ATCC 15126 were used, all from The Polish Collection of Microorganism, Polish Academy of Sciences, Wrocław, Poland. Bacteria at initial inoculums of 0.5 × 10^5 CFU/mL in Mueller–Hinton Broth (MHB), and fungus at initial inoculums of 2 × 10^3 CFU/mL in RPMI-1640, were exposed to the serial dilution of compounds. Tested concentrations were in the range 1–512 μg/mL. 96-well plates with microorganisms and tested substances were incubated at 37 °C for 18 h for bacteria and for 24 h for C. glabrata. The MIC values were taken as the lowest concentrations at which visible growth of microorganisms was inhibited. The minimum inhibitory concentrations (MICs) for MRSA ATCC 33591 were tested at the University of Liverpool. Bacterial cultures were grown overnight in Mueller–Hinton Agar (MHA) plates and adjusted to a final concentration of 10^5–10^6 CFU/mL. […] All the experiments were performed in two independent duplicates, and the MIC was determined as the lowest concentration in which no visible growth was observed.

MRSA = settings: compared with the 4 μg/mL of the analogues; strain not given, context MRSA; cited from earlier work
Experimental: To determine the antimicrobial activity of these analogues, the MIC test using the microdilution method was chosen. Analogues were tested on three different types of bacteria: Gram-positive S. aureus and S. epidermidis, Gram-negative E. coli and fungus C. glabrata (Table 1) including the MRSA ATCC 33591.

Row | Molecule | MIC (C. glabrata ATCC 15126; Nakaseomyces glabratus, ATCC15126, CLSI broth microdilution, 96-well plates, RPMI-1640, inoculum 2 × 10^3 CFU/mL, 37 °C for 24 h, tested 1–512 μg/mL, visible growth) [µg/mL] | MIC E. coli ATCC 25922 (E. coli ATCC 25922) [µg/mL] | MIC C. glabrata ATCC 15126 (C. glabrata ATCC 15126) [µg/mL] | MIC S. aureus ATCC 25923 (S. aureus ATCC 25923) [µg/mL] | MIC S. epidermidis ATCC 14990 [1] [µg/mL] | MIC MRSA ATCC 33591 (MRSA ATCC 33591) [µg/mL] | MIC (E. coli ATCC 25922; Escherichia coli, ATCC25922, 18 h, read-out: MIC E. coli ATCC 25922) [µg/mL] | potency (MIC) of natural teixobactin (MRSA) [µg/mL]
1 | CC(=O)N1CCN(c2ccc(OCC3COC(Cn4ccnc4)(c4ccc(Cl)cc4Cl)O3)cc2)CC1 (stereo not drawn) [Ketoconazole, ketoconazole, reference compound] | 0.62 (≈ 1.17 µM) |  |  |  |  |  |  | 
2 | CC[C@H](C)[C@@H]1NC(=O)[C@H](CCCNC(=N)N)NC(=O)[C@H](C)NC(=O)[C@H](NC(=O)[C@H](CO)NC(=O)[C@@H](NC(=O)[C@H](NC(=O)[C@@H](CCC(N)=O)NC(=O)[C@H](CO)NC(=O)[C@@H](NC(=O)[C@@H](Cc2ccccc2)NC)[C@@H](C)CC)[C@@H](C)CC)[C@@H](C)CC)CNC1=O [TXGS-1, D-Dap8,Arg10-teixobactin, reference compound] |  | >512 | >512 | 32 (≈ 26 µM) | 256 (≈ 208 µM) |  |  | 
3 | CC[C@H](C)[C@H](NC(=O)[C@H](N)Cc1ccccc1)C(=O)N[C@@H](CO)C(=O)N[C@H](CCC(N)=O)C(=O)N[C@@H](C(=O)N[C@H](C(=O)N[C@@H](CO)C(=O)N[C@@H]1CNC(=O)[C@H]([C@@H](C)CC)NC(=O)[C@H](CCCNC(=N)N)NC(=O)[C@H](C)NC1=O)[C@@H](C)CC)[C@@H](C)CC [TXGS-2] |  | >512 | >512 | 32 (≈ 26.3 µM) | 128 (≈ 105 µM) |  |  | 
4 | CCCC[C@@H]1NC(=O)[C@H](CCCNC(=N)N)NC(=O)[C@H](C)NC(=O)[C@H](NC(=O)[C@H](CO)NC(=O)[C@@H](NC(=O)[C@H](NC(=O)[C@@H](CCC(N)=O)NC(=O)[C@H](CO)NC(=O)[C@@H](NC(=O)[C@@H](Cc2ccccc2)NC)[C@@H](C)CC)[C@@H](C)CC)[C@@H](C)CC)CNC1=O [TXGS-3] |  | >512 | >512 | 4 (≈ 3.25 µM) | 64 (≈ 52.1 µM) | 4 (≈ 3.25 µM) |  | 
5 | CC[C@H](C)[C@@H]1NC(=O)[C@H](CCCNC(=N)N)NC(=O)[C@H](C)NC(=O)[C@H](NC(=O)[C@H](CO)NC(=O)[C@@H](NC(=O)[C@H](NC(=O)[C@@H](CCCNC(=N)N)NC(=O)[C@H](CO)NC(=O)[C@@H](NC(=O)[C@@H](Cc2ccccc2)NC)[C@@H](C)CC)[C@@H](C)CC)[C@@H](C)CC)CNC1=O [TXGS-5] (H-[dNMeF]IS[dR][d(aIle)]IS[dDap]ARI; lactam 8-C) |  | 256 (≈ 204 µM) | 512 (≈ 407 µM) | 256 (≈ 204 µM) | 256 (≈ 204 µM) |  |  | 
6 | CC[C@H](C)[C@H](NC(=O)[C@H](N)Cc1ccccc1)C(=O)N[C@@H](CO)C(=O)N[C@H](CCCNC(=N)N)C(=O)N[C@@H](C(=O)N[C@H](C(=O)N[C@@H](CO)C(=O)N[C@@H]1CNC(=O)[C@H]([C@@H](C)CC)NC(=O)[C@H](CCCNC(=N)N)NC(=O)[C@H](C)NC1=O)[C@@H](C)CC)[C@@H](C)CC [TXGS-6] |  | >512 | >512 | 64 (≈ 51.5 µM) | 64 (≈ 51.5 µM) |  |  | 
7 | CCCC[C@@H]1NC(=O)[C@H](CCCNC(=N)N)NC(=O)[C@H](C)NC(=O)[C@H](NC(=O)[C@H](CO)NC(=O)[C@@H](NC(=O)[C@H](NC(=O)[C@@H](CCCNC(=N)N)NC(=O)[C@H](CO)NC(=O)[C@@H](NC(=O)[C@@H](Cc2ccccc2)NC)[C@@H](C)CC)[C@@H](C)CC)[C@@H](C)CC)CNC1=O [TXGS-7] (H-[dNMeF]IS[dR][d(aIle)]IS[dDap]AR[Nle]; lactam 8-C) |  | 32 (≈ 25.4 µM) | 64 (≈ 50.9 µM) | 4 (≈ 3.18 µM) | 8 (≈ 6.36 µM) | 4 (≈ 3.18 µM) |  | 
8 | CCCC[C@@H]1NC(=O)[C@H](CCCNC(=N)N)NC(=O)[C@H](C)NC(=O)[C@H](NC(=O)[C@H](CO)NC(=O)[C@@H](NC(=O)[C@H](NC(=O)[C@@H](CCCNC(=N)N)NC(=O)[C@H](CO)NC(=O)[C@@H](NC(=O)[C@H](N)Cc2ccccc2)[C@@H](C)CC)[C@@H](C)CC)[C@@H](C)CC)CNC1=O [TXGS-8] (H-[dF]IS[dR][d(aIle)]IS[dDap]AR[Nle]; lactam 8-C) |  | 64 (≈ 51.5 µM) | 128 (≈ 103 µM) | 8 (≈ 6.43 µM) | 8 (≈ 6.43 µM) |  |  | 
9 | CN[C@H](CC(C)C)C(=O)N[C@H]1C(=O)N[C@@H](CC(N)=O)C(=O)N[C@H]2C(=O)N[C@H]3C(=O)N[C@H](C(=O)N[C@H](C(=O)O)c4cc(O)cc(O)c4-c4cc3ccc4O)[C@H](O)c3ccc(c(Cl)c3)Oc3cc2cc(c3O[C@@H]2O[C@H](CO)[C@@H](O)[C@H](O)[C@H]2O[C@H]2C[C@](C)(N)[C@H](O)[C@H](C)O2)Oc2ccc(cc2Cl)[C@H]1O [Vancomicin, vancomycin, reference compound] |  |  |  |  |  |  | > 64 | 
10 | teixobactin |  |  |  |  |  |  |  | 0.25
